# Results published in US20250032465A1, “METHODS OF TREATING CNS DISORDERS” (HANGZHOU HIGHLIGHTLL PHARMACEUTICAL CO., LTD, priority 2021, published 2025).
# Entries after “also recorded” stand apart in the source; their conditions may differ. Read-outs that look alike come from different tables or passages of the source.
# Columns and labels:
# JAK3 = molecular target: T1, JAK3 (Homo sapiens, UniProt P52333); assay: JAK3 biochemical test (33P-ATP filter binding, Reaction Biology); conditions: read-out: Inhibition of JAK3 (IC50)
# T1 construct: purchased Reaction Biology Corp, Malvern, PA (contract testing)
# T1 sequence (P52333 1-1124): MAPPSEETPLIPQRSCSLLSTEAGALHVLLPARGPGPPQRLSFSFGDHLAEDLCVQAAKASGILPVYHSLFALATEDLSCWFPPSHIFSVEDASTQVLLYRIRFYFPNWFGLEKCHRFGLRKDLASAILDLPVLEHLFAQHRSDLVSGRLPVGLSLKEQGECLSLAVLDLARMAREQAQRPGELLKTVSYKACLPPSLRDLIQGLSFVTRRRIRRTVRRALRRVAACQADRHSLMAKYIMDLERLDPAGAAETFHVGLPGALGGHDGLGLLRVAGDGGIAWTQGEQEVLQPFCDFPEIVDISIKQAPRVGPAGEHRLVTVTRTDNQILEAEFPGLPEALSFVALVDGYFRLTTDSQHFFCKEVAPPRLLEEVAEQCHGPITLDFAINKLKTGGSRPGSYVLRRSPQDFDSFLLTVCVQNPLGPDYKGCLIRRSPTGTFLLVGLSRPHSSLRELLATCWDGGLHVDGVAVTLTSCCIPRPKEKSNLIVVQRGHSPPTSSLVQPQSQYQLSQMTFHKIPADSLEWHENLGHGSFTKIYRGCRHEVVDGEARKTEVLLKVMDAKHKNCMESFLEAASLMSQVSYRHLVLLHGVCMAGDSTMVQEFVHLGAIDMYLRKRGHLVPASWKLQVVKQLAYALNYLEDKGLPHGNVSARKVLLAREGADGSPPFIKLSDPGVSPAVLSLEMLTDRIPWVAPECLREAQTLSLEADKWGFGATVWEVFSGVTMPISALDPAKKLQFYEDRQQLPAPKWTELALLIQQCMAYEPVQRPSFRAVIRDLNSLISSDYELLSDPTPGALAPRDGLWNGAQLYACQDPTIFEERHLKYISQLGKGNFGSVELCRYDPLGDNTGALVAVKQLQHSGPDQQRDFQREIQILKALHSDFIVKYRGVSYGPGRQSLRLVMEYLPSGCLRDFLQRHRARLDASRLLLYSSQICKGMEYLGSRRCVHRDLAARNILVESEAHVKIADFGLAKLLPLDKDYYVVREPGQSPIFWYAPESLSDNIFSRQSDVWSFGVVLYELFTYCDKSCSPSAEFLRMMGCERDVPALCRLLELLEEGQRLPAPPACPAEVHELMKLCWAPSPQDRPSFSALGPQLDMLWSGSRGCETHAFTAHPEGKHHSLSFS
# Method: The tests were conducted by Reaction Biology Corp, Malvern, PA (Anastassiadis et al. Nat Biotechnol. 2011; 29(11):1039-45). The step is briefly described as follows, using the basic reaction buffer: 20 mM Hepes (pH 7.5), 10 mM MgCl2, 1 mM EGTA, 0.02% Brij35, 0.02 mg/ml BSA, 0.1 mM Na3VO4, 2 mM DTT and 1% DMSO. The required cofactor was added to each kinase reaction respectively. Each reaction was performed according to the following reaction steps: 1) Preparing the designated substrate in the newly prepared basic reaction buffer; 2) Transferring the required cofactor to the above matrix solution; 3) Transferring the designated kinase to the substrate solution and mixing well slightly; 4) Transferring a compound of Formula (I) in DMSO to the kinase reaction mixture with Acoustic technique (Echo550; nanoliter range), culturing for 20 minutes at room temperature; 5) Introducing ^33P-ATP (specific activity: 10 μCi/μl) to the reaction mixture to trigger a reaction; 6) Culturing at room temperature and conducting a kinase reaction for 2 hours; 7) Plotting the reaction on P81 ion exchange paper; and 8) Testing the kinase activity with a filter binding assay. The results shown in Table 1 indicate that compounds of Formulae (I)-(III) are potent and selective TYK2/JAK1 inhibitors.
# HT22 cells [1] = assay: HT22 neuronal cell death induced by LPS activated BV2 microglia (transwell co-culture); type: cell-based; conditions: 1.7 μM pre-treatment of BV2, LPS 200 ng/ml, 96 h
# Method: (§1) This testing was performed to test the ability of compounds to alleviate the injury of HT22 cells induced by LPS activated BV2 cells. The testing was performed according to the following procedure: 1) Microglia BV2 cells were co-cultured on transwell inserts with HT22hippocampal neurons. BV2 cells were stimulated with LPS (200 ng/ml) for 96 h after treatment with a compound of Formula (II) at 1.7 μM. 2) HT22 cells were pre-treated with a compound of Formula (II) at 1.7 μM for 30 min and subsequently stimulated with LPS (200 ng/ml) for 96 h. 3) BV2 cells were treated using LPS. IL-6, TNF and MCP-1 productions were measured in cell supernatants using CBA assay.
# (§2) The protective effects of a compound of Formula (II) on microglial activation-induced neuronal death were evaluated in a BV2 microglia/HT22 neuron co-culture. Following stimulation of BV2 microglia with LPS (200 ng/mL), there was a marked reduction in the viability of co-cultured HT22 cells.
# HT22 cells [2] = assay: Viability of HT22 cells with LPS but without BV2 microglia; type: cell-based; conditions: 1.7 μM, presence or absence of LPS (200 ng/ml, 96 h)
# Method: as §1, §2
# [3] = Brain penetration in rats; type: in vivo; conditions: male, rat, 10 mg/kg oral gavage, 8 hour post-dosing
# Method: This testing was performed to test the ability of compounds to penetrate the blood-brain-barrier in rats. The testing was performed according to the following procedure: 1) For each compound, take 3 male rats with body weight of 217-228 g, formulate compound using 0.5% HPMC/water suspension at concentration of 1 mg/ml; 2) After fasting overnight, administer compound at 10 mg/kg by oral gavage; 3) Take plasma samples at 1, 2, 4, 8 hours post-dosing; 4) At 8 hour post-dosing, also take brain tissues and cerebrospinal fluid (CSF); 5) Analyze compound concentration in plasma, brain tissue, and CSF using LC-MS/MS method.
smiles,measurement,setting,value
Cc1nc2cnc3ccoc3c2n1[C@H]1CC[C@H](CC#N)OC1 [Formula (II)],IC50,JAK3,> 0.1 µM
same,Toxicity to HT22 cells (neuronal cell death) from LPS stimulation of BV2 microglia,HT22 cells [1],significantly reduced toxicity to HT22 cells; also recorded: reduced HT22 neuronal cell death
same,Viability of HT22 cells,HT22 cells [2],did not affect the viability
same,Kp at 8 h,"[3]; CSF/plasma, read-out: CSF (ng/ml)/ Plasma (ng/ml)",> 0.15
same,Kp at 8 h,"[3]; brain/plasma, read-out: Brain (ng/ml)/ Plasma (ng/ml)",> 0.4
